# Reference: PubChem BioAssay AID256 (DTP/NCI, 2004)
# Where “and” joins values, the source holds several entries; their conditions need not be identical. Equal entries are not always repeated. Inconclusive results and toxic doses are left out.
# System: CD2F1 mice, L1210 leukemia ip, survival T/C
# Assay: NCI In Vivo Anticancer Drug Screen. Data for tumor model L1210 Leukemia (intraperitoneal) in CD2F1 (CDF1) mice
# Details: higher = longer survival
# Summary of the method: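 Vehicle-treated tumor-bearing mice served as controls (C) for compound-treated mice (T). Reported figure is T divided by C.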
# [1] = endpoint: mean survival time, dose: 100.0 mg/kg/injection, schedule: Q01DX009 (ip), vehicle: saline with Tween-80
# [2] = endpoint: mean survival time, dose: 100.0 mg/kg/injection, schedule: Q04DX003 (ip), vehicle: saline with Tween-80
# [3] = endpoint: mean survival time, dose: 200.0 mg/kg/injection, schedule: Q01DX009 (ip), vehicle: saline with Tween-80
# [4] = endpoint: mean survival time, dose: 200.0 mg/kg/injection, schedule: Q04DX003 (ip), vehicle: saline with Tween-80
# [5] = endpoint: mean survival time, dose: 400.0 mg/kg/injection, schedule: Q01DX009 (ip), vehicle: saline with Tween-80
# [6] = endpoint: mean survival time, dose: 400.0 mg/kg/injection, schedule: Q04DX003 (ip), vehicle: saline with Tween-80
# [7] = endpoint: mean survival time, dose: 100.0 mg/kg/injection, schedule: Q01DX001 (ip), vehicle: saline
# [8] = endpoint: mean survival time, dose: 200.0 mg/kg/injection, schedule: Q01DX001 (ip), vehicle: saline
# [9] = endpoint: mean survival time, dose: 400.0 mg/kg/injection, schedule: Q01DX001 (ip), vehicle: saline
# [10] = endpoint: mean survival time, dose: 100.0 mg/kg/injection, schedule: Q04DX003 (ip), vehicle: saline
# [11] = endpoint: mean survival time, dose: 200.0 mg/kg/injection, schedule: Q04DX003 (ip), vehicle: saline
# [12] = endpoint: mean survival time, dose: 400.0 mg/kg/injection, schedule: Q04DX003 (ip), vehicle: saline
# [13] = endpoint: mean survival time, dose: 100.0 mg/kg/injection, schedule: Q01DX001 (ip), vehicle: saline with Tween-80
# [14] = endpoint: mean survival time, dose: 200.0 mg/kg/injection, schedule: Q01DX001 (ip), vehicle: saline with Tween-80
# [15] = endpoint: mean survival time, dose: 400.0 mg/kg/injection, schedule: Q01DX001 (ip), vehicle: saline with Tween-80
structure (smiles),measurement,setting,value
CN(C)N=Nc1ccc(C(N)=O)cc1,T/C,"endpoint: mean survival time, dose: 18.75 mg/kg/injection, schedule: Q01DX009 (ip), vehicle: Klucel (hydroxypropylcellulose) (HPC)",112 % of control
same,T/C,"endpoint: mean survival time, dose: 150.0 mg/kg/injection, schedule: Q01DX009 (ip), vehicle: Klucel (hydroxypropylcellulose) (HPC)",109 % of control
same,T/C,"endpoint: median survival time, dose: 12.5 mg/kg/injection, schedule: Q01DX005 (ip), vehicle: saline with Tween-80",105 % of control
same,T/C,"endpoint: median survival time, dose: 25.0 mg/kg/injection, schedule: Q01DX005 (ip), vehicle: saline with Tween-80",113 % of control
same,T/C,"endpoint: median survival time, dose: 36.0 mg/kg/injection, schedule: Q01DX005 (ip), vehicle: saline with Tween-80",123 % of control and 110 % of control
same,T/C,"endpoint: median survival time, dose: 36.0 mg/kg/injection, schedule: Q01DX009 (ip), vehicle: saline with Tween-80",116 % of control
same,T/C,"endpoint: median survival time, dose: 60.0 mg/kg/injection, schedule: Q01DX005 (ip), vehicle: saline with Tween-80",113 % of control
same,T/C,"endpoint: median survival time, dose: 100.0 mg/kg/injection, schedule: Q01DX009 (ip), vehicle: saline with Tween-80",166 % of control
same,T/C,"endpoint: median survival time, dose: 167.0 mg/kg/injection, schedule: Q01DX005 (ip), vehicle: saline with Tween-80",157 % of control
same,T/C,"endpoint: median survival time, dose: 167.0 mg/kg/injection, schedule: Q01DX009 (ip), vehicle: saline with Tween-80",176 % of control
same,T/C,"endpoint: median survival time, dose: 278.0 mg/kg/injection, schedule: Q01DX005 (ip), vehicle: saline with Tween-80",96 % of control
same,T/C,"endpoint: median survival time, dose: 278.0 mg/kg/injection, schedule: Q01DX009 (ip), vehicle: saline with Tween-80",98 % of control
COC(=O)/C=C/C=C/C(=O)OC,T/C,[1],96 % of control
same,T/C,[2],103 % of control
same,T/C,[3],96 % of control
same,T/C,[4],112 % of control
same,T/C,[5],104 % of control
same,T/C,[6],103 % of control
O=CNc1cccc(Cl)c1,T/C,[1],96 % of control
same,T/C,[2],100 % of control
same,T/C,[3],95 % of control
same,T/C,[4],90 % of control
same,T/C,[5],96 % of control
same,T/C,[6],90 % of control
O=C1CC2CCN(C(=O)c3ccccc3)C(Cc3c[nH]c4ccccc34)C2O1 (stereo not drawn),T/C,[7],105 % of control
same,T/C,[8],94 % of control
same,T/C,[9],93 % of control
O=[N+]([O-])c1cccnc1SSc1ncccc1[N+](=O)[O-],T/C,[7],90 % of control
same,T/C,[10],92 % of control
same,T/C,[8],90 % of control
same,T/C,[11],102 % of control
same,T/C,[9],90 % of control
same,T/C,[12],92 % of control
CC1C=CC(C)S1 (stereo not drawn),T/C,[7],100 % of control
same,T/C,"endpoint: mean survival time, dose: 100.0 mg/kg/injection, schedule: Q04DX002 (ip), vehicle: saline with Tween-80",101 % of control
same,T/C,[8],101 % of control
same,T/C,"endpoint: mean survival time, dose: 200.0 mg/kg/injection, schedule: Q04DX002 (ip), vehicle: saline with Tween-80",104 % of control
same,T/C,[9],105 % of control
same,T/C,"endpoint: mean survival time, dose: 400.0 mg/kg/injection, schedule: Q04DX002 (ip), vehicle: saline with Tween-80",112 % of control
O=C(NCCCN1CCOCC1)c1ccc(C(=O)NCCCN2CCOCC2)cc1,T/C,[7],95 % of control
same,T/C,[8],98 % of control
same,T/C,[9],101 % of control
CCCCOP(=O)(NCCOC)OCCCC,T/C,[2],101 % of control
same,T/C,[4],100 % of control
same,T/C,[6],103 % of control
CCC(=O)Nc1cccc(OS(=O)(=O)N(C)C)c1,T/C,[4],97 % of control
same,T/C,[6],94 % of control
C=C1CN(C(=O)NCCCl)C1,T/C,[13],100 % of control
same,T/C,[14],100 % of control
same,T/C,[15],97 % of control
O=[As](O)(O)Cc1ccccc1,T/C,"endpoint: mean survival time, dose: 6.25 mg/kg/injection, schedule: Q01DX009 (ip), vehicle: Klucel (hydroxypropylcellulose) (HPC)",100 % of control
same,T/C,"endpoint: mean survival time, dose: 12.5 mg/kg/injection, schedule: Q01DX009 (ip), vehicle: Klucel (hydroxypropylcellulose) (HPC)",89 % of control
same,T/C,"endpoint: mean survival time, dose: 25.0 mg/kg/injection, schedule: Q01DX009 (ip), vehicle: Klucel (hydroxypropylcellulose) (HPC)",93 % of control
COc1ccc(NC(=O)Nc2ccc(F)cc2)cc1,T/C,[2],101 % of control
same,T/C,[4],96 % of control
same,T/C,[6],102 % of control
CCCCCCCCCCCCCCCCOc1ccc(C(=O)OC)cc1NS(=O)(=O)c1ccc(C(=O)O)cc1,T/C,[13],96 % of control
same,T/C,"endpoint: mean survival time, dose: 100.0 mg/kg/injection, schedule: Q01DX009 (ip), vehicle: Klucel (hydroxypropylcellulose) (HPC)",98 % of control
same,T/C,[14],98 % of control
same,T/C,"endpoint: mean survival time, dose: 200.0 mg/kg/injection, schedule: Q01DX009 (ip), vehicle: Klucel (hydroxypropylcellulose) (HPC)",95 % of control
same,T/C,[15],91 % of control
same,T/C,"endpoint: mean survival time, dose: 400.0 mg/kg/injection, schedule: Q01DX009 (ip), vehicle: Klucel (hydroxypropylcellulose) (HPC)",98 % of control
COc1ccc2c(c1O)CNCC2O (stereo not drawn),T/C,[7],102 % of control
same,T/C,[8],101 % of control
same,T/C,[9],101 % of control
O=C(CNC(=O)Nc1cccc([N+](=O)[O-])c1)N/N=C/C=C/c1ccccc1,T/C,"endpoint: mean survival time, dose: 50.0 mg/kg/injection, schedule: Q01DX009 (ip), vehicle: saline with Tween-80",88 % of control
same,T/C,[3],88 % of control
CCC(C(=O)O)C(=O)O.[NH-]CC1CCCC[N-]1.[Pt+2],T/C,"endpoint: mean survival time, dose: 3.13 mg/kg/injection, schedule: Q04DX003 (ip), vehicle: saline",98 % of control
same,T/C,"endpoint: mean survival time, dose: 25.0 mg/kg/injection, schedule: Q04DX003 (ip), vehicle: saline",115 % of control
same,T/C,"endpoint: mean survival time, dose: 50.0 mg/kg/injection, schedule: Q04DX003 (ip), vehicle: saline",124 % of control
same,T/C,"endpoint: median survival time, dose: 200.0 mg/kg/injection, schedule: Q04DX003 (ip), vehicle: distilled water + Tween-80",103 % of control
CCN1CC1 (tested in a mixture with another compound),T/C,"endpoint: mean survival time, dose: 1.17 mg/kg/injection, schedule: Q01DX009 (ip), vehicle: Klucel (hydroxypropylcellulose) (HPC)",93 % of control
same,T/C,"endpoint: mean survival time, dose: 1.56 mg/kg/injection, schedule: Q04DX003 (ip), vehicle: other",92 % of control
same,T/C,"endpoint: mean survival time, dose: 2.34 mg/kg/injection, schedule: Q01DX009 (ip), vehicle: Klucel (hydroxypropylcellulose) (HPC)",102 % of control
same,T/C,"endpoint: mean survival time, dose: 3.12 mg/kg/injection, schedule: Q04DX003 (ip), vehicle: other",101 % of control
same,T/C,"endpoint: mean survival time, dose: 4.68 mg/kg/injection, schedule: Q01DX009 (ip), vehicle: Klucel (hydroxypropylcellulose) (HPC)",86 % of control
same,T/C,"endpoint: mean survival time, dose: 6.25 mg/kg/injection, schedule: Q04DX003 (ip), vehicle: other",91 % of control
same,T/C,"endpoint: mean survival time, dose: 9.37 mg/kg/injection, schedule: Q04DX003 (ip), vehicle: Klucel (hydroxypropylcellulose) (HPC)",96 % of control and 98 % of control
same,T/C,"endpoint: mean survival time, dose: 14.2 mg/kg/injection, schedule: Q04DX003 (ip), vehicle: Klucel (hydroxypropylcellulose) (HPC)",86 % of control and 94 % of control
same,T/C,"endpoint: mean survival time, dose: 21.3 mg/kg/injection, schedule: Q04DX003 (ip), vehicle: Klucel (hydroxypropylcellulose) (HPC)",103 % of control
COc1ccc(C(CO)=C(c2ccc(OC)cc2)c2ccc(OC)cc2)cc1,T/C,[2],103 % of control
same,T/C,[4],94 % of control
same,T/C,[6],95 % of control
CC1(c2ccc(O)cc2)OCCCC1([NH-])C[NH-].[Cl][Pt+2][Cl] (stereo not drawn),T/C,"endpoint: median survival time, dose: 10.0 mg/kg/injection, schedule: Q04DX003 (ip), vehicle: saline",110 % of control
same,T/C,"endpoint: median survival time, dose: 20.0 mg/kg/injection, schedule: Q04DX003 (ip), vehicle: saline",106 % of control
same,T/C,"endpoint: median survival time, dose: 40.0 mg/kg/injection, schedule: Q04DX003 (ip), vehicle: saline",100 % of control
same,T/C,"endpoint: median survival time, dose: 80.0 mg/kg/injection, schedule: Q04DX003 (ip), vehicle: saline with Tween-80",107 % of control
same,T/C,"endpoint: median survival time, dose: 80.0 mg/kg/injection, schedule: Q04DX003 (ip), vehicle: saline",103 % of control
same,T/C,"endpoint: median survival time, dose: 160.0 mg/kg/injection, schedule: Q04DX003 (ip), vehicle: saline with Tween-80",107 % of control
same,T/C,"endpoint: median survival time, dose: 320.0 mg/kg/injection, schedule: Q04DX003 (ip), vehicle: saline with Tween-80",107 % of control
N#CC(C(N)=O)C1CC(=O)Oc2ccccc21 (stereo not drawn),T/C,"endpoint: mean survival time, dose: 100.0 mg/kg/injection, schedule: Q04DX003 (ip), vehicle: Klucel (hydroxypropylcellulose) (HPC)",91 % of control
same,T/C,"endpoint: mean survival time, dose: 200.0 mg/kg/injection, schedule: Q04DX003 (ip), vehicle: Klucel (hydroxypropylcellulose) (HPC)",112 % of control
O=[P+](O)C(O)c1ccccc1 (stereo not drawn),T/C,[10],108 % of control
same,T/C,[11],111 % of control
same,T/C,[12],117 % of control
C[C@]12CC[C@H](O)C[C@@]1(O)CC[C@@H]1[C@@H]2CC[C@]2(C)[C@@H](c3ccc(=O)oc3)C[C@H]3O[C@]132,T/C,"endpoint: mean survival time, dose: 2.5 mg/kg/injection, schedule: Q01DX009 (ip), vehicle: other",97 % of control
same,T/C,"endpoint: mean survival time, dose: 5.0 mg/kg/injection, schedule: Q01DX009 (ip), vehicle: other",92 % of control
same,T/C,"endpoint: mean survival time, dose: 10.0 mg/kg/injection, schedule: Q01DX009 (ip), vehicle: other",91 % of control
